# Measured values from ChEMBL document CHEMBL1201862, “PubChem BioAssay data set” (2004).
# Active and inactive are the calls of the source.
# Key:
# [1] = general cell-killing toxicity readout – plate reader, dry powder samples, cytotoxicity control for PAX8 inhibitor project, dose response (AID 743021); assay type: functional, cell-based
# [2] = Luminescence Cell-Based Dose Response HTS to Identify Inhibitors of 5'UTR Stem-Loop Driven Prion Protein mRNA Translation in H4 Neuroglioblastoma Cells. [Related pubchem assays: 1827 (Project Summary), 1813 (Primary HTS)]; assay type: functional
# Paired box protein Pax-8 = Paired box protein Pax-8 (Homo sapiens, UniProt Q06710); assay: PAX8 transcriptional activity inhibition in RMG-I – RMG-I cells, luciferase, cherry-pick, dose response (AID 687027); assay type: functional, cell-based;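 note: luciferase reporter driven by Pax8 target thyroperoxidase promoter measured by SteadyGlo luminescence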
# [3] = target: 72 kDa type IV collagenase (Homo sapiens, UniProt P08253); assay: Dose Response validation of uHTS RPN11 inhibitor hits using a MMP-2 Fluorescence assay.; assay type: functional
# [4] = luciferase reporter signal suppression in cells – H4 neuroglioma cells, luminescence, dose response (AID 1990); assay type: functional, cell-based
# [5] = alpha-synuclein stem-loop luciferase translation blockers – H4 neuroglioma cells, luminescence, confirmation (AID 1988); assay type: functional, cell-based
# [6] = target: SWI/SNF-related matrix-associated actin-dependent regulator of chromatin subfamily A member 2 (Homo sapiens, UniProt P51531); assay: Luminescence-based cell-based high throughput dose response assay to identify activators of the function of SWI/SNF related, matrix associated, actin dependent regulator of chromatin, subfamily a, member 2 (SMARCA2, BRM).; assay type: functional
# [7] = target: 26S proteasome non-ATPase regulatory subunit 14 (Homo sapiens, UniProt O00487); assay: inhibition of proteasome subunit RPN11 – biochemical, fluorescence polarization, uHTS hits, confirmation (AID 602368); assay type: functional
# Prothrombin = Prothrombin (Bos taurus, UniProt P00735); assay: thrombin protease inhibitors – biochemical, fluorescence polarization, uHTS hits, dose response (AID 602369); assay type: functional
# [8] = Counterscreen for activators of the function of SWI/SNF related, matrix associated, actin dependent regulator of chromatin, subfamily a, member 2 (SMARCA2, BRM): Luminescence-based cell-based high throughput dose response assay to identify non-selective compounds using the VP16 reporter assay.; assay type: functional
# [9] = target: Multidrug resistance protein CDR2 (Candida albicans (strain SC5314 / ATCC MYA-2876) (Yeast), UniProt P78595); assay: inhibition of Nile Red efflux via Candida CDR2 – S. cerevisiae AD1-8u, singleplex, Cherry Pick1 hits, dose response (AID 588604); assay type: functional
# ORF 73 = ORF 73 (Human herpesvirus 8, UniProt O40947); assay: KSHV LANA DNA-binding disruption – biochemical, fluorescence polarization, cherry-picked samples, dose response (AID 504725); design: species or system Human gammaherpesvirus 8;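 note: fluorescence polarization of a labeled DNA duplex reporting LANA DNA binding; potency is for inhibitors that block LANA binding to the DNA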
# [10] = target: Benomyl/methotrexate resistance protein (Candida albicans, UniProt P28873); assay: Candida albicans Mdr1 pump inhibition curves – singleplex, Cherry Pick1 hits, dose response (AID 588608); assay type: functional
# Melanocortin receptor 4 = Melanocortin receptor 4 (Homo sapiens, UniProt P32245); assay: inhibitors of MC4R cAMP signaling – cell-based, TR-FRET, biased antagonists, dose response (AID 602298); assay type: functional;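 note: antagonist potency against agonist-stimulated cAMP production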
# [11] = cAMP pathway inhibition in counterscreen cell line – TR-FRET cAMP detection, counter-screen for MC4R biased antagonist project, dose response (AID 602305); assay type: functional, cell-based;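 note: U2OS cells stimulated with forskolin near its EC80 as the cAMP inducer; potency is for inhibition of forskolin-stimulated cAMP signaling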
# [12] = target: T1, DNA dC->dU-editing enzyme APOBEC-3G (Homo sapiens, UniProt Q9HC16); assay: Dose Response confirmation of small molecule APOBEC3G DNA Deaminase Inhibitors via a fluorescence-based single-stranded DNA deaminase assay. [Related pubchem assays (depositor defined):AID493012, AID493028]; assay type: functional
# [13] = target: T1, DNA dC->dU-editing enzyme APOBEC-3G; assay: inhibition of APOBEC3G ssDNA deamination – biochemical, fluorescence, single-stranded DNA substrate, SAR follow-up (AID 602136); assay type: functional; details: read-out: IC50_Mean
# [14] = target: T2, DNA dC->dU-editing enzyme APOBEC-3A (Homo sapiens, UniProt P31941); assay: SAR analysis of small molecule inhibitors of APOBEC3A DNA Deaminase via a fluorescence-based single-stranded DNA deaminase assay.; assay type: functional; details: read-out: IC50_Mean
# [15] = target: T2, DNA dC->dU-editing enzyme APOBEC-3A; assay: A3A deaminase inhibition for selectivity – biochemical, dose response (AID 504722); assay type: functional
# [16] = target: T2, DNA dC->dU-editing enzyme APOBEC-3A; assay: SAR analysis of small molecule inhibitors of APOBEC3A DNA Deaminase via a fluorescence-based single-stranded DNA deaminase assay - Set 2.; assay type: functional; details: read-out: IC50_Mean
# [17] = target: T1, DNA dC->dU-editing enzyme APOBEC-3G; assay: SAR analysis of small molecule inhibitors of APOBEC3G DNA Deaminase via a fluorescence-based single-stranded DNA deaminase assay - Set 2.; assay type: functional; details: read-out: IC50_Mean
# [18] = target: Protein disulfide-isomerase (Homo sapiens, UniProt P07237); assay: inhibition of PDI-driven insulin aggregation – biochemical, turbidity, absorbance, cherry-picked samples, dose response (AID 602350); assay type: functional
# Sequence of Protein disulfide-isomerase (P07237 whole entry): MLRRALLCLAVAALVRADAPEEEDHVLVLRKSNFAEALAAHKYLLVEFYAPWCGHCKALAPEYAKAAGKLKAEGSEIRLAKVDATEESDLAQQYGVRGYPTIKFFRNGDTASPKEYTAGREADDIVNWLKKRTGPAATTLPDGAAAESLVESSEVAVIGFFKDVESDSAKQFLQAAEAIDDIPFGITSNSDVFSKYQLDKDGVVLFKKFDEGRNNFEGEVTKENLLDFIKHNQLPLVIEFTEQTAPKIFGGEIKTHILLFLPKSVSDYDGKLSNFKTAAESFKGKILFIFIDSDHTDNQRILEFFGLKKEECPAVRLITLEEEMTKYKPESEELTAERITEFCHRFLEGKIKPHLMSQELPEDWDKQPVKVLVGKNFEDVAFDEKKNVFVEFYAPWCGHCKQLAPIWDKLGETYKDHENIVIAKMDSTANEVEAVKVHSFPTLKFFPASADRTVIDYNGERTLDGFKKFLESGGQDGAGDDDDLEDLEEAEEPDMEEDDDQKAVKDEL
# T1 sequence (Q9HC16 whole entry): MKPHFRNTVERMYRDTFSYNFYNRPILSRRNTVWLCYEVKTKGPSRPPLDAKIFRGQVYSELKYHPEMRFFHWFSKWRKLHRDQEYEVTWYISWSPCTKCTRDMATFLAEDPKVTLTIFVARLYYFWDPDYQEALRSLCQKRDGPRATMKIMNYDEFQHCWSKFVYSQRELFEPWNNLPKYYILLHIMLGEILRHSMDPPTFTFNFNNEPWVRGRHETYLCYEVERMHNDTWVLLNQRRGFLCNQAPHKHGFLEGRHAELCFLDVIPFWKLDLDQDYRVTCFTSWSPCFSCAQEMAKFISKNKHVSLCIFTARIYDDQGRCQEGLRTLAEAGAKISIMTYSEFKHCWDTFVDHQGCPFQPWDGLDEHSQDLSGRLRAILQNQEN
# T2 sequence (P31941 whole entry): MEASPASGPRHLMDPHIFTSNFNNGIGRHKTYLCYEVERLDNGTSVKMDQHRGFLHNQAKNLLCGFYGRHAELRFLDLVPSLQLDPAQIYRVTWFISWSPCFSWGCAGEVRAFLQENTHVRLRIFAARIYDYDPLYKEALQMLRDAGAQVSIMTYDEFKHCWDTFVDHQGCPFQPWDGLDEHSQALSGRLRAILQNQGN
# Sequence of Benomyl/methotrexate resistance protein (P28873 whole entry): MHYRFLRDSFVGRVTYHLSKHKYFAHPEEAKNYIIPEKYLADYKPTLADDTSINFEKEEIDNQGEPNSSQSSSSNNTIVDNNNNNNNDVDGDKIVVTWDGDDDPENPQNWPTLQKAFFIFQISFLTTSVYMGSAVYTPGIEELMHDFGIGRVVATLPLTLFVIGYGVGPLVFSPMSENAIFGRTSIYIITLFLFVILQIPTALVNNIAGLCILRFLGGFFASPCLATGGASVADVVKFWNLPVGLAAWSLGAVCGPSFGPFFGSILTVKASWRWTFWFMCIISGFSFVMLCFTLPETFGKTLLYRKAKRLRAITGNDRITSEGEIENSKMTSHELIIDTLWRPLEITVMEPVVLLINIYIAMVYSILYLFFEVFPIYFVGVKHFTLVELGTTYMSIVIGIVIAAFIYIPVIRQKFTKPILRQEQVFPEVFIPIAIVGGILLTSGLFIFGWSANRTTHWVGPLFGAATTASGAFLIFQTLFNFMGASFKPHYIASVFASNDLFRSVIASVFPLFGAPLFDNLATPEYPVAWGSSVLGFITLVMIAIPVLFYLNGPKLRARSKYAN
# Sequence of Paired box protein Pax-8 (Q06710 whole entry): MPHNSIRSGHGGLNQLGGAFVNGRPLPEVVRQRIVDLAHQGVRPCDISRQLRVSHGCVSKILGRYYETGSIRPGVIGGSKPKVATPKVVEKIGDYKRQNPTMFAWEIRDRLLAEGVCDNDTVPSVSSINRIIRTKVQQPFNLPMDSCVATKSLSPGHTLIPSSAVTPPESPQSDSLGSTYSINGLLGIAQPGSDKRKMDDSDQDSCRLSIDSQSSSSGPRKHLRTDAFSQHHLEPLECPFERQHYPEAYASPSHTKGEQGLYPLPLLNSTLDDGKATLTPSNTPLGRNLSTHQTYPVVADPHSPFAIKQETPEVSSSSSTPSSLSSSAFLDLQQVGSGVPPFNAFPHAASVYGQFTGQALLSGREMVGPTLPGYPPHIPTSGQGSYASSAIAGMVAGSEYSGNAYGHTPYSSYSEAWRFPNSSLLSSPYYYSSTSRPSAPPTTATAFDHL
# Sequence of Multidrug resistance protein CDR2 (P78595 whole entry): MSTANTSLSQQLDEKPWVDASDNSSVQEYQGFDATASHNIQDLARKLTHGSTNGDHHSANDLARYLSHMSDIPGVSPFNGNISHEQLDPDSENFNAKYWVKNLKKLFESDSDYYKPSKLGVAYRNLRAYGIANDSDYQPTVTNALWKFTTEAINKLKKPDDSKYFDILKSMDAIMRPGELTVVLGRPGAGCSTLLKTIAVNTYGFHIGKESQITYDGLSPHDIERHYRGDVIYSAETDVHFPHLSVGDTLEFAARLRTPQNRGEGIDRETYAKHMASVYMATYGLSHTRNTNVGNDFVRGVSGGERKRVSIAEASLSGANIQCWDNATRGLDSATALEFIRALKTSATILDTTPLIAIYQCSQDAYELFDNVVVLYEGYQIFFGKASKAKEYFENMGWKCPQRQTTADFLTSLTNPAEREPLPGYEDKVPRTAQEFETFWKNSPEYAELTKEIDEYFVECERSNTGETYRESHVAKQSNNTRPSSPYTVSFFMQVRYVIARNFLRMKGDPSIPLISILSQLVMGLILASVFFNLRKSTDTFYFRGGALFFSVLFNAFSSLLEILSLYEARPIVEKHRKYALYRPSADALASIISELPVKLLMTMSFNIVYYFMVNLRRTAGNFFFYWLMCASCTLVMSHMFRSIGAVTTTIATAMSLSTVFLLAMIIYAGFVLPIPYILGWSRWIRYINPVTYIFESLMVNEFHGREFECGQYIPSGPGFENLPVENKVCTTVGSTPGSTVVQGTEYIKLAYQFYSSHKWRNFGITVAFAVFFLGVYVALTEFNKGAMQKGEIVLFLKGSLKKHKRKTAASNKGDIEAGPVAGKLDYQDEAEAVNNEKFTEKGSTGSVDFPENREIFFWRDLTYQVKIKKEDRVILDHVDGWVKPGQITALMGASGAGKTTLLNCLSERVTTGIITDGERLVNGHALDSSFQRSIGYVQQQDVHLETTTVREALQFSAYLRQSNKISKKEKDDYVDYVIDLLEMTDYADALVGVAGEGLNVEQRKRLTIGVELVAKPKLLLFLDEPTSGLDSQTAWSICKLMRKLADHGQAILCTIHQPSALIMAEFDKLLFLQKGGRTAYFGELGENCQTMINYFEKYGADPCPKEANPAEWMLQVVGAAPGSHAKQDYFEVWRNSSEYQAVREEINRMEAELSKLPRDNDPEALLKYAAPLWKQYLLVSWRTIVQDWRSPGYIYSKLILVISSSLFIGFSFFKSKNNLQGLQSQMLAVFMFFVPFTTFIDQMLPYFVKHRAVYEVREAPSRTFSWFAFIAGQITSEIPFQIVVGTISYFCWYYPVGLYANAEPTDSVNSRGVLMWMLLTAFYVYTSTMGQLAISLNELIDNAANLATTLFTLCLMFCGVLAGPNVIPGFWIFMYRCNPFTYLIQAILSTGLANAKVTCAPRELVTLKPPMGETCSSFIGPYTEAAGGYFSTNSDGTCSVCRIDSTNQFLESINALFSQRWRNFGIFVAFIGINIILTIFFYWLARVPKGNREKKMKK
# Sequence of 72 kDa type IV collagenase (P08253 whole entry): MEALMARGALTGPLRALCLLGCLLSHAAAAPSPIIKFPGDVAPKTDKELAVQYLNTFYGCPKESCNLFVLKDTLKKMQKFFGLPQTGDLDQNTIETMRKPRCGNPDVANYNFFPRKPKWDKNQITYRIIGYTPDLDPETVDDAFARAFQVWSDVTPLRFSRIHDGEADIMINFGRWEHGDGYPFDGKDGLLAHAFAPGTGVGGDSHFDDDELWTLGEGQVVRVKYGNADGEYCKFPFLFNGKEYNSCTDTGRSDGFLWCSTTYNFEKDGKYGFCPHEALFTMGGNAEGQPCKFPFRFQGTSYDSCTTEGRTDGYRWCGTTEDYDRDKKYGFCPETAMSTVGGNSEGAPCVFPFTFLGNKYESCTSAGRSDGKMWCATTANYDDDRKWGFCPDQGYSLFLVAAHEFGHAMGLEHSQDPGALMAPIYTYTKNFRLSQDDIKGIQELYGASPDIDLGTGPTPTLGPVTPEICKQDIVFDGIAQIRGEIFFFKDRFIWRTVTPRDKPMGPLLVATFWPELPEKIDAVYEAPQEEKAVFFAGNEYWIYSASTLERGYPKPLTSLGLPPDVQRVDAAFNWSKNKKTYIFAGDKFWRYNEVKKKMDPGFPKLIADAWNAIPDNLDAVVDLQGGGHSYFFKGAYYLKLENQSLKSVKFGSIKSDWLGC
# Sequence of Melanocortin receptor 4 (P32245 whole entry): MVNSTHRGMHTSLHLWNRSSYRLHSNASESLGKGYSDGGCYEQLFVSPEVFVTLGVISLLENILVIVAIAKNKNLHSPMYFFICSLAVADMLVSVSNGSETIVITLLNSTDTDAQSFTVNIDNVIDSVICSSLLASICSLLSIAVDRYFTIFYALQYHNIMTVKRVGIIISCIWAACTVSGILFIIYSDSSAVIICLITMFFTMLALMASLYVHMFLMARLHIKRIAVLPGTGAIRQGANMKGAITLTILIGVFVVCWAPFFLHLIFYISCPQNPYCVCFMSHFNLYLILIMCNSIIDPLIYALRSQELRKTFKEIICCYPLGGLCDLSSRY
# Sequence of 26S proteasome non-ATPase regulatory subunit 14 (O00487 whole entry): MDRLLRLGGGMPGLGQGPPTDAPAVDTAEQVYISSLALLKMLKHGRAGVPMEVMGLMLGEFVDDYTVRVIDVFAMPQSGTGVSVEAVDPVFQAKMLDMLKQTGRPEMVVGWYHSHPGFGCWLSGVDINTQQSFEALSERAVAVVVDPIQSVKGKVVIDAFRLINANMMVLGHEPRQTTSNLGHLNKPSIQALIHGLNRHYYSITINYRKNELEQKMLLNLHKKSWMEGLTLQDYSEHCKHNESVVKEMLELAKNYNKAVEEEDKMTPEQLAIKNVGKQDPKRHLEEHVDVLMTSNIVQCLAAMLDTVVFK
structure (smiles),measurement,setting,value
COc1ccc(-n2nc3c(N4CCC(C(=O)NCc5cccc(C)c5)CC4)nnc(C)c3c2C)cc1,AC50,[1],23.8 µM (active)
same,EC50,[2],12 µM (active)
same,AC50,Paired box protein Pax-8,5.58 µM (active)
same,IC50,[3],> 100 µM (inactive)
same,EC50,[4],9.83 µM (active)
same,EC50,[5],6.99 µM (active)
same,EC50,[6],> 91.1 µM (inactive)
same,IC50,[7],29.3 µM (active)
same,IC50,Prothrombin,48.7 µM (active)
same,EC50,[8],> 91.1 µM (inactive)
O=C1/C(=C/c2ccco2)Oc2c1ccc(O)c2CN1CCCCC1,EC50,[9],18.4 µM (active)
same,AC50,ORF 73,14.5 µM (active)
same,EC50,[10],9.63 µM (active)
Cc1ccc(CNC(=O)COC(=O)Cn2nc(C)c([N+](=O)[O-])c2C)cc1,IC50,Melanocortin receptor 4,14.4 µM (inactive)
same,IC50,[11],> 64.6 µM (inactive)
S=c1[nH]nc2c3c4c(sc3ncn12)CCCC4,IC50,[12],0.992 µM (active)
same,IC50,[13],3.15 µM (active)
same,IC50,[14],> 99 µM (inactive)
same,IC50,[15],> 100 µM (inactive)
same,IC50,[16],> 99 µM (inactive)
same,IC50,[17],> 99 µM (inactive)
COc1ccc(N2CCN(CC(=O)c3ccc(O)c(C)c3O)CC2)cc1,AC50,[18],19.5 µM (active)
